Here are results for 5 compounds from patent US4204003A, “N-(2-Aminocyclopentyl)-N-alkanoylanilides as CNS anti-depressants” (The Upjohn Company, priority 1978, dated 1980).

The nature of series [1]: rat liver microsome incubation system (metabolism). Type of series: in vitro ADME. Particulars: from the corresponding N-[2-(dimethylamino)cyclopentyl]propionanilide compound.
For the next series, the system named is yohimbine toxicity. As to the kind of experiment: standard yohimbine toxicity potentiation test. Type of series: in vivo. Particulars: ip; intraperitoneally.
Another series has as its system oxotremorine hypothermia. As to the kind of experiment: standard oxotremorine hypothermia antagonism test. Type of series: in vivo. Particulars: ip; intraperitoneally.
The conditions of series [2]: literature (J. Pharmaceutical Sciences, December 1974); cited from earlier work.
The conditions of series [3]: literature (J. Pharmaceutical Sciences, December 1974); cited from earlier work. The source holds these as a separate data set.

Bounds are passed on as bounds.

As usually defined, the ED50 is the midpoint of the dose-response relation.

For “2-(N-methylamino)cyclopentylpropionanilide”, the “metabolite formed in rat liver microsome incubation” value in series [1] was “is a metabolite of the corresponding N-[2-(dimethylamino)cyclopentyl]propionanilide compound”. As to `CCC(=O)N(c1ccc(Cl)c(Cl)c1)[C@@H]1CCC[C@H]1N` (relative stereo) [Trans-3,4-dichloro-N-(2-aminocyclopentyl)-propionanilide], the ED50 in the series with yohimbine toxicity and with oxotremorine hypothermia was under 1 mg/kg throughout. Consider `ON(c1ccccc1)C1CCCCC1N1CCCC1` (stereo not shown) [N-[2-(N-pyrrolidinyl)cyclohexyl]-N-phenylhydroxylamine], for which the CNS properties result in series [2] is “do not have useful CNS properties”.

`COc1ccc(C(O)C2CCCCC2N2CCCCC2)cc1` (stereo not shown) [[2-(N-piperidinylcyclohexyl]-(4-methoxyphenyl)methanol]: in series [3], the diuretic activity entry is reported as “Diuretic activity is alleged”. As to `CCC(=O)N(c1ccc(Cl)c(Cl)c1)[C@@H]1CCC[C@H]1NC` (relative stereo) [Trans-3,4-dichloro-N-[2-(N-methylamino)-cyclopentyl]propionanilide], the 50% effective dose (ED50) in the series with yohimbine toxicity and with oxotremorine hypothermia was under 1 mg/kg each time.
